Measured values: patent US6218112A, “Optimization of gene delivery and gene delivery system” (Cobra Therapeutics Limited, priority 1997, dated 2001)
Entries after “also recorded” stand apart in the source; their conditions may differ. Blank lines part the entries; values can stand above or below the substance they belong to. * marks the point of attachment. Palmitoyl = CCCCCCCCCCCCCCCC(=O)*; Acm = CC(=O)NC*

Tests used:
Tumor Cells = experiment: In vitro transfection with complexes containing lipidated peptides; format: cell-based
Protocol: (§1) After incubation the cells are lysed and are assayed for gene expression. In the case of the luciferase reporter gene, luciferin and ATP are added to lysed cells and the light emitted is measured with a luminometer (see deWet et al., supra).
For the data provided in FIG. 8, complexes were assembled as described herein using NBC2 and Lip2 as condensing peptides.

[1] = tested on: plasmid nucleic acid pRSVLuc; experiment: Surface plasmon resonance (BIAcore) binding kinetics of peptides/conjugates to immobilized biotinylated plasmid DNA
Protocol: In the examples described below, SPR was detected using the BIAcore system. This machine contained an SPR detector and an integrated microfluidic cartridge which is engineered such that an analyte solution (cationic peptide) is continuously passed over the sensor chip. The sensor chip consists of a glass plate coated with a thin film of gold covered in a layer of carboyxymethyl dextran. The chip used has a dextran layer to which streptavidin is covalently attached. The chip is prepared for use by adding biotinylated nucleic acid which will be bound to the chip via the streptavidin-biotin interaction, and the same chip is used in a series of experiments.
As material binds to the immobilized nucleic acid molecule on the sensor chip, the SPR angle of plane polarized light shining on the surface of the chip is monitored by the detector. Changes in angle are defined as resonance units (RU) and data are collected every second. Background effects are detected and automatically subtracted by the use of a control flow cell in line with the nucleic acid flow cell.
A typical sensorgram has three phases: an association phase, an equilibrium phase and a dissociation phase (see FIG. 1). The rise in signal occurs as more peptide binds to the immobilized plasmid DNA until equilibrium conditions are reached. The height of the peak is directly proportional to the mass of peptide bound. If the flow continues with buffer containing no peptide, peptide begins to dissociate from the complex and the resonance signal is reduced. The sensorgram can be used to compute apparent rate constants for each of the three individual processes.
(1) dC/dt=ka [PF ] [Pmax -PB ]-kd [PB ]
Measurement of Binding Kinetics by Surface Plasmon Resonance
A 6 kilobase (kb) plasmid DNA (pRSVLuc) was biotinylated using photoactivatable biotin (Pierce and Warriner) as per manufacturer's instructions.
A sensor chip with immobilized streptavidin (SA5) was conditioned following manufacturer's instructions, i.e., three one-minute injections of 1 M NaCl: 50 mM NaOH followed by one 1 min injection of 0.5% SDS. Flow rate on the BlAcore sensing device was 20 μl per min, running buffer was phosphate buffered saline (PBS). Flow path was flow cells 1 and 2.
The flow path was switched to flow cell 2 only and the flow rate was reduced to 10 μl per minute. Biotinylated plasmid at a concentration of […] in 0.5M NaCl was injected for 3 mins.
Phosphate buffered saline was used as running buffer at a flow rate of 20 μl per minute. The flow path was over flow cells 1 and 2. Flow cell 1 was used as a reference cell. The experiments were carried out at a temperature of 25° C.
Peptides were injected at various concentrations for three minutes. The injection was followed by a 5 min dissociation phase before the injection port was washed. The sensor chip was regenerated by the injection of 2M NaCl for 1 min. If necessary, this injection was repeated to bring the response back down to baseline before the next peptide sample was injected.
The data was analysed using the methods described in the handbook (BIAevaluation 2.1. Software Handbook, Pharmacia Biosensor AB, Uppsala, Sweden).
Essentially the plots were evaluated as follows: The dissociation constant, kd, was determined first. A curve or family of curves (same NBC at different concentrations) were plotted as response (Y) versus time as Ln (Yo/Y) versus time. In the area where the Ln(Yo/Y) curve was linear, a fit of the default dissociation model [AB]=[A]+[B] was made. The association constant, ka, was then calculated by fitting the related association model on that part of the association curve where a plot of In(abs(dY/dt) versus time was linear. KD were approximated by dividing the calculated kd with the calculated ka.

cells = experiment: Transfection efficiency / activity of complexes (general statement); format: cell-based; conditions: related to affinity for nucleic acid
[2] = tested on: KLN-205 squamous epithelial syngenic tumour cells; experiment: In vivo transfection of KLN-205 tumours in DBA2 mice by local injection of peptide/plasmid complexes (nitroreductase immunostaining); set-up: species or system mouse; conditions: 0.5 μg peptide/μg DNA, intratumoural injection
Protocol: A representative in via cell transfection system is transfection of tumor cells using a murine carcinoma model.
The murine carcinoma model DBA2 containing the squamous epithelial syngenic tumour cell line KLN-205 was prepared as described in the Examples. A transfecting complex was prepared using a solution of plasmid DNA encoding a reporter gene or, for example, nitroreductase and a selected NBC peptide 0.5 μg peptide/μg DNA, as described herein. Where desired, a conjugate peptide was added to the transfecting complex, at a concentration of 0.1-0.3 μg […] peptide/μg DNA.
Transfection efficiency may be determined in a number of ways, including assessing the effect of the reporter gene on the target tissue, or by quantitating the gene product. Below, tissues samples were obtained and nitroreductase gene expression was ascertained via staining of tissue sections.
The ability to transfect tumor cells in vivo in mice was tested using plasmid nucleic acid carrying the nitroreductase reporter gene condensed on each of the following peptides: NBC15, NBC8, NBC9, NBC11, NBC7.
DBA2--male mice, aged 5-10 weeks were injected subcutaneously in each flank with a squamous epithelial syngenic tumour cell line KLN-205. The cell line was grown up in 175 ml T-flasks in standard EMEM medium containing 10% foetal calf serum. When the cells reached a density of 4×10^6 they were suspended by a standard trypsinization technique, washed in PBS and diluted to a final concentration of […].
The anaesthetic was Enflurane (Alynane; Anaquest, Ltd., Windlesham, Surrey UK): Ketamine (10% Ketaset, Willows Francis Veterinary, Cramley, West Sussex, UK); Rompun (2%, Bayer UK, Ltd., Suffolk, UK). For 10 ml anaesthetic mixture: 8.5 ml PBS; 1 ml Ketamine; 0.5 ml Rompun. Each animal was injected intra-peritoneally with 200 μl/animal using 1 ml syringe with 25 gauge needle. Once anaesthetized, the tumour is manipulated between the fingers lifting it slightly away from the animal's body and at the same time apply minimum pressure to the tumour. Using a 0.5 ml insulin needle the formulated delivery vehicle (a plasmid containing the E. coli nitroreductase gene condensed on a peptide at a ratio of 0.5 μg peptide/μg DNA) to be injected is taken up and the tumour is injected horizontally trying to avoid any visible blood vessels and necrotic or abnormal tissue. Daily monitoring is continued until the experiment is terminated.
7μ sections of frozen tumour tissue are prepared using standard methods and a Cryostat and air dried. Sections are fixed with freshly prepared 4% PFA/PBS for 30 mins at room temperature and then washed twice with 0.01% Tween-20/PBS 5 mins each wash. Sections are then immersed in 0.25% hydrogen peroxide/PBS, at room temperature (20C.) for 30 mins, and then washed three times in 0.01% Tween 20/PBS for 5 mins each wash. Sections are then permeabilised by treatment with ice cold 0.1 % TRITON X-100 for 5 mins, followed by a further two washes in 0.01% Tween-20/PBS 5mins each wash. The sections are then blocked with 5% NGS/PBS 60mins at room temperature in a wetbox. After decanting the blocking solution, 0.5 ml diluted antiserum/slide (1:400 in 2.5% NGS) is added and the sections incubated for 60 mins at room temperature. Slides are then washed three times in 0.01% Tween-20/PBS 5 mins each wash. Secondary antibody (0.5 ml) from ABC Elite Vector stain kit is added as follows and incubated 30 mins at room temperature in a wetbox.
The tumour is a murine syngenic squamous carcinoma produced by subcutaneous injection of KLN205 cells. When the tumours were approximately 4 mm in diameter they were injected with 20 μl of plasmid DNA formulated with the NBC15 peptide. After 48 h the tumours were excised and sectioned by standard histological techniques and immunostained for expression of the transgene (E. coli nitroreductase). […] In this case the tumours were injected with the same plasmid formulated in 0.5 μg NBC9 peptide/μg DNA.

Jurkat cell line = experiment: In vitro transfection with pRSVLuc (luciferase) condensed on peptides; format: cell-based; conditions: peptide 2 μg/μg plasmid DNA, luciferase after 24 h, FIG. 7
Protocol: as §1
Cell lines such as Jurkat and K562 grow in suspension and can be transfected and the level of transgene expression (luciferase activity) determined b) the following method. Cells are harvested on the day of assay by centrifugation at 1200 rpm for 5 mins at room temperature. The cell pellet is resuspended in phosphate buffered saline and re-centrifuged. This operation is performed twice. […] The cells are then aliquoted into tubes and 0.75 ml of RPMI medium added, followed by 0.04-0.08 ml of 100 mM Chloroquine and finally 0.25 ml of DNA-complex solution. The transfection is then allowed to proceed by incubating the cells at 37° C. for 4 h. After this time the cells are harvested by centrifugation at 2000 rpm. The cells are then suspended in 1 ml of RPMI medium and re-centrifuged. Finally the cells are suspended in 0.5 ml RPMI medium containing 10% foetal bovine serum. Each 0.5 ml of transfected cell suspension is transferred to a well of a 12 well plastic culture plate containing 1.5 ml of RPMI 10% FBS. The original transfection tube is rinsed with a further 1 ml of medium and the wash transferred to the culture dish making a final volume of 3 ml. The culture plate is then incubated at 37° C. for 24-90 h in an atmosphere of 5% CO2. The contents of each well in the culture dish are transferred to centrifuge tubes and the cells collected by centrifugation at 13000 rpm. The pellet is resuspended in 0.12 ml of Lysis Buffer (100 mM sodium phosphate, pH 7.8; 8 mM magnesium chloride, 1 mM EDTA; 1% Triton X-100 and 15% glycerol) and agitated with a pipette. The lysate is centrifuged at 13000 rpm for 1 min and the supernatant collected. 80 μl of the supernatant are transferred to a luminometer tube. The luciferase activity is then assayed using a Berthold Lumat L9501 luminometer. The assay buffer used is Lysis Buffer containing 10 mM Luciferin and 100 mM ATP. Light produced by the luciferase is integrated over 4s and is described as relative light units (RLU). The data are converted to RLU/ml of lysate, RLU/cell or RLU/mg protein (protein concentration of the lysate having been determined in this case by the BioRAD Lowry assay.
In order to compare the relative efficiency of transfection of complexes composed of different NBC condensation peptides or poly-L-lysine, pRSVLuc DNA at a concentration of 100 μg/ml was condensed using peptide at a ratio of 2 μg/μg plasmid DNA as described herein with the following deviation: prior to addition to the cells (Jurkat cell line) the complexes were diluted to 20 μg/ml with 10% PEG 10 000; 37 mM sodium chloride; 25 mM sodium phosphate, pH 7.4. The cells were assayed for luciferase after 24 h.

Substance: CH3-(CH2)14-CONH-KPKAAKPKKPKKKRKVEKKSPKKAKKPAAC(Acm)SEQ ID NO:11-COOH (Palmitoyl-KPKAAKPKKPKKKRKVEKKSPKKAKKPAAC(Acm)-OH; SMILES CCCCCCCCCCCCCCCC(=O)N[C@@H](CCCCN)C(=O)N1CCC[C@H]1C(=O)N[C@@H](CCCCN)C(=O)N[C@@H](C)C(=O)N[C@@H](C)C(=O)N[C@@H](CCCCN)C(=O)N1CCC[C@H]1C(=O)N[C@@H](CCCCN)C(=O)N[C@@H](CCCCN)C(=O)N1CCC[C@H]1C(=O)N[C@@H](CCCCN)C(=O)N[C@@H](CCCCN)C(=O)N[C@@H](CCCCN)C(=O)N[C@@H](CCCNC(=N)N)C(=O)N[C@@H](CCCCN)C(=O)N[C@H](C(=O)N[C@@H](CCC(=O)O)C(=O)N[C@@H](CCCCN)C(=O)N[C@@H](CCCCN)C(=O)N[C@@H](CO)C(=O)N1CCC[C@H]1C(=O)N[C@@H](CCCCN)C(=O)N[C@@H](CCCCN)C(=O)N[C@@H](C)C(=O)N[C@@H](CCCCN)C(=O)N[C@@H](CCCCN)C(=O)N1CCC[C@H]1C(=O)N[C@@H](C)C(=O)N[C@@H](C)C(=O)N[C@@H](CSCNC(C)=O)C(=O)O)C(C)C) [Lip2]
transfection efficiency, lipidated peptide with free underivatized peptide (Tumor Cells; Lip2 with NBC2, FIG. 8): transfection efficiency is augmented; also recorded: more than two orders of magnitude
transfection efficiency, condensation with lipidated peptide alone (Tumor Cells; complete condensation with palmitoyl-NBC2 (Lip2) alone): extremely poor transfection efficiencies

ka ([1]; apparent rate constant for association, SPR, PBS, 25° C.): 219000 M⁻¹ s⁻¹
kd ([1]; apparent rate constant for dissociation, SPR, PBS, 25° C.): 0.0011 s⁻¹
apparent dissociation constant kd ([1]; approximate values): approximately 1×10^-3 sec^-1
Kd ([1]; approximate values, read-out: equilibrium dissociation constant KD): ~5 nM
Substance: NH2-KKSPKKAKKPAAKKSPKKAKKPAAKKSPKKAKKPAAKKSPKKAKKPAYC(Acm)-COOH (H-KKSPKKAKKPAAKKSPKKAKKPAAKKSPKKAKKPAAKKSPKKAKKPAYC(Acm)-OH) [NBC10]
transfection efficiency (cells): not completely deleterious to transfection

Substance: poly-lysine [reference compound]
ranking by numbers of transfected tumor cells (most to least efficient) [2]: NBC15>NBC8, NBC9, NBC11>NBC7>>>poly-lysine
number of transfected tumor cells / level of transfection ([2]; 48 h, nitroreductase immunostaining): the fewest number of transfected tumor cells
rank in order of relative transfection efficiency (most to least efficient) (Jurkat cell line): NBC11>NBC13>NBC8>>NBC15>>>polylysine
